The text below walks through data of patent publication US20260151486A1, “PRESSURIZED NANOEMULSION” (BIOFRONTERA BIOSCIENCE GMBH, priority 2023, published 2026).

Data set [1] can be described thus: ALA content over storage time in nanoemulsion formulation. As to conditions: in BF200 with PX=2%, 3% 5-ALA; after 36 months storage at 2-25° C. The data set is classed as physicochemical. How it is done:
Nanoemulsion formulations BF200 PX=2% glass and BF200 PX=2% foam were prepared as described in Example 5. The nanoemulsion formulations were stored at 25° C. and 2-8° C. The content of ALA was determined at 0 (starting point) and various time points during the 36 months storage period.

Data set [2] in a line: TC content over storage time in nanoemulsion formulation. The data set is classed as physicochemical. As to conditions: in BF220 with PX=4%, 0.1% TC. How it is done: Nanoemulsion formulations BF220 TC=0.1% glass and BF220 TC=0.1% foam were prepared as described in Example 6. The nanoemulsion formulations were stored at 2-8° C. and 25° C. The content of TC was determined at 0 (starting point) and various time points up to 48 months storage period.

For data set [3] the following is noted: room temperature; cited from earlier work.

The structures appear in SMILES notation.

Regarding `NCC(=O)CCC(=O)O` [ALA, 5-aminolevulinic acid], the ALA content entry in data set [1] is listed as “at least 90%”.

Take `C=CC[C@@H]1/C=C(\C)C[C@H](C)C[C@H](OC)[C@H]2O[C@@](O)(C(=O)C(=O)N3CCCC[C@H]3C(=O)O[C@H](/C(C)=C/[C@@H]3CC[C@@H](O)[C@H](OC)C3)[C@H](C)[C@@H](O)CC1=O)[C@H](C)C[C@@H]2OC` [TC, Tacrolimus]: the TC content entry in data set [2] (after 6 months at 25° C.) and in data set [2] (after 48 months storage at 2-8° C.) was “at least 95%” each time. Also, in data set [3], the “stability in aqueous formulations” value is listed as “approx. 90 days”.
